Data as given in US9840500B2, “Compounds as dual inhibitors of histone methyltransferases and DNA methyltransferases” (FUNDACIÓN PARA LA INVESTIGACIÓN MÉDICA APLICADA, priority 2014, dated 2017).

Key:
[1] = system: RT112; experiment: Cell proliferation assay, RT112 (Bladder); type: cell-based; conditions: Homo sapiens, RT-112, 48 hours
Description: (§1) Cell proliferation was analyzed after 48 hours of in vitro treatment using the CellTiter 96 Aqueous One Solution Cell Proliferation Assay (Promega, Madison, Wis.). This is a colorimetric method for determining the number of viable cells in proliferation.
(§2) For the assay, suspension cells were cultured by triplicate at a density of 1×10^6 cells/ml in 96-well plates (100.000 cells/well, 100 μl/well), except for OCILY-3 and OCILY-10 cell lines which were cultured at a density of 0.5×10^6 cells/ml (50.000 cells/well, 100 μl/well) and for HepG2, Hep3B and PLC/PRF/5 cell ines which were cultured at a density of 3000 cells/well, 100 μl/well). Adherent cells were obtained from 80-90% confluent flasks and 100 μl of cells were seeded at a density of 5000 cells/well in 96-well plates by triplicate. Before addition of the compounds, adherent cells were allowed to attach to the bottom of the wells for 12 hours. […]
(§3) After 48 hours of treatment, plates with suspension cells were centrifuged at 800 g for 10 minutes and medium was removed. […] After 1-3 hours of incubation at 37° C., absorbance was measured at 490 nm in a 96-well plate reader. The background absorbance was measured in wells with only cell line medium and solution reagent. Data was calculated as a percentage of total absorbance of treated cell/absorbance of non treated cells. […]

[2] = system: SK-MEL-147; experiment: Cell proliferation assay, SK-MEL-147 (Melanoma); type: cell-based; conditions: Homo sapiens, 48 hours
Description: as §1, §2, §3

[3] = system: MGH-U4; experiment: Cell proliferation assay, MGH-U4 (Bladder); type: cell-based; conditions: 48 hours
Description: as §1, §2, §3

[4] = system: MOLM-13; experiment: Cell proliferation assay, MOLM-13 (AML); type: cell-based; conditions: Homo sapiens, 48 hours
Description: as §1, §2, §3

[5] = system: MV411; experiment: Cell proliferation assay, MV411 / MV4-11 (AML); type: cell-based; conditions: Homo sapiens
Description: as §1
(§4) For the assay, suspension cells were cultured by triplicate at a density of 1×10^6 cells/ml in 96-well plates (100.000 cells/well, 100 μl/well), except for OCILY-3 and OCILY-10 cell lines which were cultured at a density of 0.5×10^6 cells/ml (50.000 cells/well, 100 μl/well) and for HepG2, Hep3B and PLC/PRF/5 cell ines which were cultured at a density of 3000 cells/well, 100 μl/well). Adherent cells were obtained from 80-90% confluent flasks and 100 μl of cells were seeded at a density of 5000 cells/well in 96-well plates by triplicate. Before addition of the compounds, adherent cells were allowed to attach to the bottom of the wells for 12 hours. In all cases, only the 60 inner wells were used to avoid any border effects.
(§5) After 48 hours of treatment, plates with suspension cells were centrifuged at 800 g for 10 minutes and medium was removed. The plates with adherent cells were flicked to remove medium. Then, cells were incubated with 100 ul/well of medium and 20 ul/well of CellTiter 96 Aqueous One Solution reagent. After 1-3 hours of incubation at 37° C., absorbance was measured at 490 nm in a 96-well plate reader. The background absorbance was measured in wells with only cell line medium and solution reagent. Data was calculated as a percentage of total absorbance of treated cell/absorbance of non treated cells.
(§6) Compounds 3-04 and 3-07 were tested against different solid tumour and oncohematological cell lines using the cell proliferation protocol described above.

[6] = system: A498; experiment: Cell proliferation assay, A498 (Renal); type: cell-based; conditions: Homo sapiens, 48 hours
Description: as §1, §2, §3

[7] = system: Hep3B; experiment: Cell proliferation assay, Hep3B (HCC); type: cell-based; conditions: Homo sapiens, 48 hours of treatment, Table 3
[8] = system: 1205-LU; experiment: Cell proliferation assay, 1205-LU (Melanoma); type: cell-based; conditions: Homo sapiens, 48 hours
Description: as §1, §2, §3

[9] = system: OCI-AML-2; experiment: Cell proliferation assay, OCI-AML-2 (AML); type: cell-based; conditions: Homo sapiens
Description: as §1, §4, §5, §6

[10] = system: DU145; experiment: Cell proliferation assay, DU145 (Prostate); type: cell-based; conditions: Homo sapiens, DU-145, 48 hours
Description: as §1, §2, §3

[11] = target: DNMT3A/3L (Homo sapiens, UniProt Q9Y6K1); experiment: DNMT3A enzyme activity assay (chemiluminescence BPS DNMT Universal Assay Kit); type: biochemical
Description: DNMT3A and DNMT3B activity assays were carried out with the chemiluminiscence BPS DNMT Universal Assay Kit (BPS#52035) using a strip 96-well plate pre-coated with DNMT substrate.
The enzyme activity assay protocol is as follows: • Rehydrate the microwells by adding 150 μL of TBST buffer (1× Tris-buffered saline (TBS), pH 8.0, containing 0.05% Tween-20) to every well. Incubate 15 minutes at room temperature. • Dilute each purified DNMT [DNMT3A/3L (BPS#51106) or DNMT3B/3L (BPS#51109)] in 1×DNMT assay buffer 2 (BPS#52201) at 5-10 ng/μL. Keep diluted enzyme on ice until use. • Prepare 50 μL of reaction mixture consisting of 20 μL of DNMT (5-10 ng/μL), 12.5 μL of 4×DNMT assay buffer 2 (BPS#52201), 2.5 μL of S-adenosylmethionine 400 μM, test compound at concentrations ranging from 3 nM to 10 μM and H2O up to 50 μL. • Add the entire reaction mixture to the substrate coated wells. […]
Incubate for 30 min at room temperature with slow shaking. • Wash plate three times with TBST buffer and incubate in Blocking buffer shaking on a rotating platform for 10 min. […] Immediately read luminescence using a BioTek Synergy™2 microplate reader.
The chemiluminescence intensity data were analyzed and compared. […] Calculated IC50 values were determined using non-linear regression analysis of Sigmoidal dose-response curve generated with a four-parameters inhibition curve.

[12] = system: HCT-116; experiment: Cell proliferation assay, HCT-116 (Colorectal); type: cell-based; conditions: Homo sapiens, 48 hours
Description: as §1, §2, §3

[13] = system: Sk-Hep1; experiment: Cell proliferation assay, Sk-Hep1 (Hepatocarcinoma); type: cell-based; conditions: Homo sapiens, 48 hours
Description: as §1, §2, §3

[14] = system: HepG2; experiment: Cell proliferation assay, HepG2 (HCC); type: cell-based; conditions: Homo sapiens, 48 hours of treatment, Table 3
[15] = system: U266; experiment: Cell proliferation assay, U266 (MM); type: cell-based; conditions: Homo sapiens, U-266, Table 5 comparison
Description: as §1, §4, §5

[16] = system: SU8686; experiment: Cell proliferation assay, SU8686 (Pancreas); type: cell-based; conditions: Homo sapiens, SU.86.86, 48 hours
Description: as §1, §2, §3

[17] = system: HELA; experiment: Cell proliferation assay, HELA (Cervical); type: cell-based; conditions: Homo sapiens, 48 hours
Description: as §1, §2, §3

[18] = system: HCC95; experiment: Cell proliferation assay, HCC95 (small-cell lung cancer); type: cell-based; conditions: Homo sapiens, non-small-cell lung cancer, 48 hours
Description: as §1, §2, §3

[19] = system: A375; experiment: Cell proliferation assay, A375 (Melanoma); type: cell-based; conditions: Homo sapiens, A-375, 48 hours
Description: as §1, §2, §3

[20] = system: MGH-U3; experiment: Cell proliferation assay, MGH-U3 (Bladder); type: cell-based; conditions: 48 hours
Description: as §1, §2, §3

[21] = system: 451-LU; experiment: Cell proliferation assay, 451-LU (Melanoma); type: cell-based; conditions: 48 hours
Description: as §1, §2, §3

[22] = system: PLC/PRF/5; experiment: Cell proliferation assay, PLC/PRF/5 (HCC); type: cell-based; conditions: Homo sapiens, 48 hours of treatment, Table 3

Chain of DNMT3A/3L (Q9Y6K1 whole entry, looked up): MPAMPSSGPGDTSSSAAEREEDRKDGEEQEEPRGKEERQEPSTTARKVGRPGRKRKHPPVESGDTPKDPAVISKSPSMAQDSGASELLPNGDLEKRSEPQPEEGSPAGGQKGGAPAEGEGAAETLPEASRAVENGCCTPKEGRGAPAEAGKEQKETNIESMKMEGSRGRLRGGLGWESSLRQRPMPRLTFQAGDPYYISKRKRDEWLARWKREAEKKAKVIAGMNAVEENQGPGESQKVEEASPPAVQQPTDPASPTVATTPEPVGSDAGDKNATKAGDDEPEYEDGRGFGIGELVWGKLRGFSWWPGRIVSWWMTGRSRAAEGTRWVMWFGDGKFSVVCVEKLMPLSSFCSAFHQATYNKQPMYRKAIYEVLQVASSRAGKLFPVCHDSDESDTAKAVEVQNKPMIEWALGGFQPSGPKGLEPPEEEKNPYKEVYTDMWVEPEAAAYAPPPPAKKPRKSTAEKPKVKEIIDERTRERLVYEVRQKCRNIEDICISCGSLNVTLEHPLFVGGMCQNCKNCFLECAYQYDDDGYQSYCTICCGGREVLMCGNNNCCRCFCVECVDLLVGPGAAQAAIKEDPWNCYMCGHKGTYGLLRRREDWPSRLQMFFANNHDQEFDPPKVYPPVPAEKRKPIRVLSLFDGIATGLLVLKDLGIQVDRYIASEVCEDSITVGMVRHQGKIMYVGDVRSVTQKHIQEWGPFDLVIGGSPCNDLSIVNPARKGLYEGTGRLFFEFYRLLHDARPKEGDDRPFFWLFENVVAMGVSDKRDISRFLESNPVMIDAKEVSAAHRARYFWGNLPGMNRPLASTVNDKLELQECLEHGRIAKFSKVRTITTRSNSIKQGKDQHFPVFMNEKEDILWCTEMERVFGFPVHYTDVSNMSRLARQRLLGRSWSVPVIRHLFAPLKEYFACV
Chain of DNMT3A/3L (Q9UJW3 whole entry partner): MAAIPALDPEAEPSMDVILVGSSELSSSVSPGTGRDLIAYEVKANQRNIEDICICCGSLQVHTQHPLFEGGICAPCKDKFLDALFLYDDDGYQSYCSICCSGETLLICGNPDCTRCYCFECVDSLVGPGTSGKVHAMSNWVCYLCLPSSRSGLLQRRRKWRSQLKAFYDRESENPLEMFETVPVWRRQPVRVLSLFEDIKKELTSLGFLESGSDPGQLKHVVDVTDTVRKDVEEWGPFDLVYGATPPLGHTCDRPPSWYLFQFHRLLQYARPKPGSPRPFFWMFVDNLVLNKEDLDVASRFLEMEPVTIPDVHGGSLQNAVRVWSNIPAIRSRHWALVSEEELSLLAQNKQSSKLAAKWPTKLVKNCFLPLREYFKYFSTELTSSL

Row | SMILES | GI50 [1] | GI50 [2] | GI50 [3] | GI50 [4] | GI50 ([5]; MV4-11, 48 hours, Table 4) | GI50 ([5]; MV4-11, Table 5 comparison) | GI50 [6] | GI50 [7] | GI50 [8] | GI50 ([9]; OCI-AML2, 48 hours, Table 4) | GI50 ([9]; OCI-AML2, Table 5 comparison) | GI50 [10] | IC50 [11] | GI50 [12] | GI50 [13] | GI50 [14] | GI50 [15] | GI50 [16] | GI50 [17] | GI50 [18] | further results
1 | COc1cc2c(NC3CCN(C)CC3)cc(-c3ccc(C)o3)nc2cc1OCCCN1CCCC1.O=C(O)C(F)(F)F [Compound 3-04, 6-methoxy-2-(5-methyl-2-furyl)-N-(1-methyl-4-piperidyl)-7-(3-pyrrolidin-1-ylpropoxy)quinolin-4-amine; 2,2,2-trifluoroacetic acid] | 0.1 to 1 µM | 0.1 to 1 µM | 0.1 to 1 µM | 0.1 to 1 µM | 0.1 to 1 µM | 0.1 to 1 µM | > 10 µM | 0.1 to 1 µM | 0.1 to 1 µM | 0.1 to 1 µM | 0.1 to 1 µM | 0.1 to 1 µM | < 0.1 µM | 0.1 to 1 µM | 0.1 to 1 µM | 0.1 to 1 µM | 1 to 10 µM | 1 to 10 µM | 0.1 to 1 µM | 0.1 to 1 µM | GI50 [19]: 0.1 to 1 µM; GI50 [20]: 0.1 to 1 µM; GI50 [21]: 0.1 to 1 µM; GI50 [22]: 0.1 to 1 µM
2 | COc1cc2c(NCC3CCN(C)CC3)cc(-c3ccc(C)o3)nc2cc1OCCCN1CCCC1 [Compound 3-07] | 0.1 to 1 µM | ≤ 0.1 µM | 0.1 to 1 µM | 1 to 10 µM | 0.1 to 1 µM | 0.1 to 1 µM | 0.1 to 1 µM | 0.1 to 1 µM | ≤ 0.1 µM | 0.1 to 1 µM | 0.1 to 1 µM | 0.1 to 1 µM | < 0.1 µM | 0.1 to 1 µM | 0.1 to 1 µM | 0.1 to 1 µM | 1 to 10 µM | 0.1 to 1 µM | 0.1 to 1 µM | 0.1 to 1 µM | GI50 [19]: ≤ 0.1 µM; GI50 [20]: 0.1 to 1 µM; GI50 [21]: ≤ 0.1 µM; GI50 [22]: 0.1 to 1 µM
